Laboratory results from PubChem BioAssay (NCI).
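1) Cells in 96-well plates. 2) Compound, 48 h, 5 concentrations. 3) Linear interpolation between surrounding doses. 4) Unreached endpoint = highest concentration. TGI: concentration producing complete growth inhibition.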

Experiments:
Assay in all cases: DTP human tumour cell line panel, 48 h
SNB-75 CNS = tested on: SNB-75 CNS
SK-MEL-28 melanoma = tested on: SK-MEL-28 melanoma
SK-OV-3 ovarian = tested on: SK-OV-3 ovarian
A498 renal = tested on: A498 renal
M14 melanoma = tested on: M14 melanoma
NCI-H522 lung = tested on: NCI-H522 lung
K-562 leukemia = tested on: K-562 leukemia
SW-620 colon = tested on: SW-620 colon
A549 NSCLC = tested on: A549 NSCLC
UACC-62 melanoma = tested on: UACC-62 melanoma
MALME-3M melanoma = tested on: MALME-3M melanoma
HCT-116 colon = tested on: HCT-116 colon
DLD-1 colon = tested on: DLD-1 colon
786-0 renal = tested on: 786-0 renal
OVCAR-8 ovarian = tested on: OVCAR-8 ovarian
SNB-19 CNS = tested on: SNB-19 CNS
OVCAR-4 ovarian = tested on: OVCAR-4 ovarian
RXF-631 renal = tested on: RXF-631 renal
DMS 273 small cell lung = tested on: DMS 273 small cell lung
MOLT-4 leukemia = tested on: MOLT-4 leukemia
NCI-H460 lung = tested on: NCI-H460 lung
CCRF-CEM leukemia = tested on: CCRF-CEM leukemia
XF 498 CNS = tested on: XF 498 CNS
IGROV1 ovarian = tested on: IGROV1 ovarian
SF-539 CNS = tested on: SF-539 CNS
LOX IMVI melanoma = tested on: LOX IMVI melanoma
COLO 205 colon = tested on: COLO 205 colon
HT29 colon = tested on: HT29 colon
OVCAR-3 ovarian = tested on: OVCAR-3 ovarian
SF-295 CNS = tested on: SF-295 CNS
SK-MEL-5 melanoma = tested on: SK-MEL-5 melanoma
EKVX NSCLC = tested on: EKVX NSCLC
HOP-92 NSCLC = tested on: HOP-92 NSCLC
SK-MEL-2 melanoma = tested on: SK-MEL-2 melanoma
NCI-H226 lung = tested on: NCI-H226 lung
U251 CNS = tested on: U251 CNS
KM12 colon = tested on: KM12 colon
TK-10 renal = tested on: TK-10 renal
RPMI-8226 leukemia = tested on: RPMI-8226 leukemia
DMS 114 small cell lung = tested on: DMS 114 small cell lung
HOP-62 NSCLC = tested on: HOP-62 NSCLC
LXFL 529 NSCLC = tested on: LXFL 529 NSCLC
SF-268 CNS = tested on: SF-268 CNS
SN12C renal = tested on: SN12C renal
M19-MEL melanoma = tested on: M19-MEL melanoma
CAKI-1 renal = tested on: CAKI-1 renal
ACHN renal = tested on: ACHN renal
OVCAR-5 ovarian = tested on: OVCAR-5 ovarian
RXF 393 renal = tested on: RXF 393 renal
HL-60(TB) leukemia = tested on: HL-60(TB) leukemia
HCT-15 colon = tested on: HCT-15 colon
KM20L2 colon = tested on: KM20L2 colon
HCC-2998 colon = tested on: HCC-2998 colon
HOP-18 NSCLC = tested on: HOP-18 NSCLC
NCI-H23 lung = tested on: NCI-H23 lung
SNB-78 CNS = tested on: SNB-78 CNS
UACC-257 melanoma = tested on: UACC-257 melanoma
UO-31 renal = tested on: UO-31 renal
SR leukemia = tested on: SR leukemia

Measured: TGI

O=C(O)CCNCCCNCCC(=O)O
> 100 µM: SNB-75 CNS | SK-MEL-28 melanoma | SK-OV-3 ovarian | A498 renal | M14 melanoma | NCI-H522 lung | K-562 leukemia | SW-620 colon | A549 NSCLC | UACC-62 melanoma | MALME-3M melanoma | HCT-116 colon | DLD-1 colon | 786-0 renal | OVCAR-8 ovarian | SNB-19 CNS | OVCAR-4 ovarian | RXF-631 renal | DMS 273 small cell lung | MOLT-4 leukemia | NCI-H460 lung | CCRF-CEM leukemia | XF 498 CNS | IGROV1 ovarian | SF-539 CNS | LOX IMVI melanoma | COLO 205 colon | HT29 colon | OVCAR-3 ovarian | SF-295 CNS | SK-MEL-5 melanoma | EKVX NSCLC | HOP-92 NSCLC | SK-MEL-2 melanoma | NCI-H226 lung | U251 CNS | KM12 colon | TK-10 renal | RPMI-8226 leukemia | DMS 114 small cell lung | HOP-62 NSCLC | LXFL 529 NSCLC | SF-268 CNS | SN12C renal | M19-MEL melanoma | CAKI-1 renal | ACHN renal | OVCAR-5 ovarian | RXF 393 renal | HL-60(TB) leukemia | HCT-15 colon | KM20L2 colon | HCC-2998 colon | HOP-18 NSCLC | NCI-H23 lung

NC1=NCCC1(c1ccccc1)c1ccccn1 (stereo unspecified)
> 100 µM: SNB-75 CNS | SK-MEL-28 melanoma | SK-OV-3 ovarian | A498 renal | M14 melanoma | NCI-H522 lung | K-562 leukemia | SW-620 colon | A549 NSCLC | UACC-62 melanoma | MALME-3M melanoma | HCT-116 colon | 786-0 renal | OVCAR-8 ovarian | SNB-19 CNS | OVCAR-4 ovarian | DMS 273 small cell lung | MOLT-4 leukemia | NCI-H460 lung | CCRF-CEM leukemia | XF 498 CNS | IGROV1 ovarian | SNB-78 CNS | SF-539 CNS | COLO 205 colon | HT29 colon | OVCAR-3 ovarian | UACC-257 melanoma | SF-295 CNS | SK-MEL-5 melanoma | EKVX NSCLC | HOP-92 NSCLC | SK-MEL-2 melanoma | NCI-H226 lung | U251 CNS | KM12 colon | TK-10 renal | RPMI-8226 leukemia | DMS 114 small cell lung | HOP-62 NSCLC | LXFL 529 NSCLC | SF-268 CNS | SN12C renal | M19-MEL melanoma | CAKI-1 renal | ACHN renal | OVCAR-5 ovarian | RXF 393 renal | HL-60(TB) leukemia | HCT-15 colon | KM20L2 colon | HCC-2998 colon | HOP-18 NSCLC | NCI-H23 lung

CCCC1C(=O)CCc2c(OC)ccc(OC)c21 (stereo unspecified)
> 100 µM: SNB-75 CNS | SK-OV-3 ovarian | A498 renal | M14 melanoma | K-562 leukemia | SW-620 colon | A549 NSCLC | UACC-62 melanoma | MALME-3M melanoma | HCT-116 colon | DLD-1 colon | 786-0 renal | UO-31 renal | OVCAR-8 ovarian | SNB-19 CNS | OVCAR-4 ovarian | DMS 273 small cell lung | MOLT-4 leukemia | NCI-H460 lung | CCRF-CEM leukemia | XF 498 CNS | IGROV1 ovarian | SNB-78 CNS | SF-539 CNS | LOX IMVI melanoma | COLO 205 colon | HT29 colon | OVCAR-3 ovarian | UACC-257 melanoma | SF-295 CNS | SK-MEL-5 melanoma | EKVX NSCLC | SK-MEL-2 melanoma | U251 CNS | KM12 colon | TK-10 renal | RPMI-8226 leukemia | DMS 114 small cell lung | HOP-62 NSCLC | LXFL 529 NSCLC | SF-268 CNS | SN12C renal | M19-MEL melanoma | CAKI-1 renal | ACHN renal | OVCAR-5 ovarian | RXF 393 renal | HL-60(TB) leukemia | HCT-15 colon | KM20L2 colon | HCC-2998 colon | HOP-18 NSCLC | NCI-H23 lung

Cc1c(C(=O)CC(=O)C(=O)Nc2ccccc2C(F)(F)F)[n+](=O)c2ccccc2n1[O-]
80.1 µM: RXF 393 renal
50 µM: CCRF-CEM leukemia
47.5 µM: IGROV1 ovarian
93.2 µM: K-562 leukemia
49 µM: U251 CNS
92.3 µM: KM20L2 colon
57.2 µM: HT29 colon
75.6 µM: A549 NSCLC
32.2 µM: COLO 205 colon
> 100 µM: SK-OV-3 ovarian | A498 renal | 786-0 renal | UO-31 renal | SNB-19 CNS | SNB-78 CNS | SF-295 CNS | NCI-H226 lung | TK-10 renal | HOP-62 NSCLC | CAKI-1 renal | ACHN renal
65.9 µM: OVCAR-5 ovarian
57.7 µM: HCC-2998 colon
63.8 µM: LOX IMVI melanoma
46.2 µM: SF-539 CNS
37.1 µM: MALME-3M melanoma
34.4 µM: UACC-62 melanoma
66.2 µM: HL-60(TB) leukemia
28.3 µM: HCT-116 colon
59.9 µM: DMS 273 small cell lung
62.1 µM: LXFL 529 NSCLC
61.6 µM: KM12 colon
25.2 µM: DMS 114 small cell lung
54.4 µM: SN12C renal
42 µM: OVCAR-4 ovarian | XF 498 CNS
24.2 µM: RPMI-8226 leukemia
35.8 µM: NCI-H522 lung
69 µM: SF-268 CNS
44.4 µM: HCT-15 colon
49.4 µM: EKVX NSCLC
69.4 µM: NCI-H460 lung
36.2 µM: UACC-257 melanoma
48.3 µM: SK-MEL-2 melanoma
26.6 µM: SR leukemia
60.1 µM: HOP-92 NSCLC
30.4 µM: SK-MEL-5 melanoma
37 µM: HOP-18 NSCLC
8.37 µM: OVCAR-3 ovarian
47 µM: SW-620 colon
44.3 µM: NCI-H23 lung
39 µM: M14 melanoma
61.3 µM: OVCAR-8 ovarian
92.1 µM: SK-MEL-28 melanoma
